# From PubChem BioAssay (NCI)
#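 A five-concentration, 48-hour dose response in 96-well plates underlies each endpoint, interpolated linearly between surrounding concentrations. GI50: concentration for 50% inhibition of growth. TGI: concentration producing complete growth inhibition.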
# Tests used:
# Test in all cases: inhibition of tumour cell growth, NCI panel, 48 h
# MDA-MB-231 breast = test system: MDA-MB-231 breast
# 786-0 renal = test system: 786-0 renal
# SK-MEL-5 melanoma = test system: SK-MEL-5 melanoma
# UO-31 renal = test system: UO-31 renal
# NCI/ADR-RES ovarian = test system: NCI/ADR-RES ovarian
# RPMI-8226 leukemia = test system: RPMI-8226 leukemia
# KM12 colon = test system: KM12 colon
# OVCAR-3 ovarian = test system: OVCAR-3 ovarian
# OVCAR-4 ovarian = test system: OVCAR-4 ovarian
# NCI-H226 lung = test system: NCI-H226 lung
# NCI-H522 lung = test system: NCI-H522 lung
# SK-MEL-2 melanoma = test system: SK-MEL-2 melanoma
# COLO 205 colon = test system: COLO 205 colon
# HCC-2998 colon = test system: HCC-2998 colon
# HOP-92 NSCLC = test system: HOP-92 NSCLC
# ACHN renal = test system: ACHN renal
# BT-549 breast = test system: BT-549 breast
# T-47D breast = test system: T-47D breast
# MCF7 breast = test system: MCF7 breast
# MDA-MB-435 = test system: MDA-MB-435
# OVCAR-8 ovarian = test system: OVCAR-8 ovarian
# SN12C renal = test system: SN12C renal
# SK-MEL-28 melanoma = test system: SK-MEL-28 melanoma
# RXF 393 renal = test system: RXF 393 renal
# SF-268 CNS = test system: SF-268 CNS
# MOLT-4 leukemia = test system: MOLT-4 leukemia
# SW-620 colon = test system: SW-620 colon
# HCT-116 colon = test system: HCT-116 colon
# MALME-3M melanoma = test system: MALME-3M melanoma
# IGROV1 ovarian = test system: IGROV1 ovarian
# M14 melanoma = test system: M14 melanoma
# HOP-62 NSCLC = test system: HOP-62 NSCLC
# SF-539 CNS = test system: SF-539 CNS
# HCT-15 colon = test system: HCT-15 colon
# SNB-19 CNS = test system: SNB-19 CNS
# K-562 leukemia = test system: K-562 leukemia
# OVCAR-5 ovarian = test system: OVCAR-5 ovarian
# NCI-H460 lung = test system: NCI-H460 lung
# UACC-62 melanoma = test system: UACC-62 melanoma
# TK-10 renal = test system: TK-10 renal
# UACC-257 melanoma = test system: UACC-257 melanoma
# DU-145 prostate = test system: DU-145 prostate
# HL-60(TB) leukemia = test system: HL-60(TB) leukemia
# SNB-75 CNS = test system: SNB-75 CNS
# U251 CNS = test system: U251 CNS
# LOX IMVI melanoma = test system: LOX IMVI melanoma
# HT29 colon = test system: HT29 colon
# NCI-H23 lung = test system: NCI-H23 lung
# SK-OV-3 ovarian = test system: SK-OV-3 ovarian
# SF-295 CNS = test system: SF-295 CNS
# SR leukemia = test system: SR leukemia
# HS 578T breast = test system: HS 578T breast
smiles,measurement,setting,value
N#Cc1cnc2ccc(NCc3cnc[nH]3)cc2c1Nc1ccc(F)c(Cl)c1,GI50,MDA-MB-231 breast,17 µM
same,TGI,MDA-MB-231 breast,> 100 µM
same,GI50,786-0 renal,9.21 µM
same,TGI,786-0 renal,> 100 µM
same,GI50,SK-MEL-5 melanoma,19 µM
same,TGI,SK-MEL-5 melanoma,> 100 µM
same,GI50,UO-31 renal,3.52 µM
same,TGI,UO-31 renal,> 100 µM
same,GI50,NCI/ADR-RES ovarian,> 100 µM
same,TGI,NCI/ADR-RES ovarian,> 100 µM
same,GI50,RPMI-8226 leukemia,> 100 µM
same,TGI,RPMI-8226 leukemia,> 100 µM
same,GI50,KM12 colon,> 100 µM
same,TGI,KM12 colon,> 100 µM
same,GI50,OVCAR-3 ovarian,3.38 µM
same,TGI,OVCAR-3 ovarian,> 100 µM
same,GI50,OVCAR-4 ovarian,2.44 µM
same,TGI,OVCAR-4 ovarian,> 100 µM
same,GI50,NCI-H226 lung,> 100 µM
same,TGI,NCI-H226 lung,> 100 µM
same,GI50,NCI-H522 lung,4.6 µM
same,TGI,NCI-H522 lung,> 100 µM
same,GI50,SK-MEL-2 melanoma,6.34 µM
same,TGI,SK-MEL-2 melanoma,> 100 µM
same,GI50,COLO 205 colon,> 100 µM
same,TGI,COLO 205 colon,> 100 µM
same,GI50,HCC-2998 colon,> 100 µM
same,TGI,HCC-2998 colon,> 100 µM
same,GI50,HOP-92 NSCLC,1.08 µM
same,TGI,HOP-92 NSCLC,> 100 µM
same,GI50,ACHN renal,2.88 µM
same,TGI,ACHN renal,> 100 µM
same,GI50,BT-549 breast,> 100 µM
same,TGI,BT-549 breast,> 100 µM
same,GI50,T-47D breast,4.68 µM
same,TGI,T-47D breast,> 100 µM
same,GI50,MCF7 breast,20.1 µM
same,TGI,MCF7 breast,> 100 µM
same,GI50,MDA-MB-435,14.7 µM
same,TGI,MDA-MB-435,88.5 µM
same,GI50,OVCAR-8 ovarian,4.51 µM
same,TGI,OVCAR-8 ovarian,> 100 µM
same,GI50,SN12C renal,4.17 µM
same,TGI,SN12C renal,> 100 µM
same,GI50,SK-MEL-28 melanoma,17.3 µM
same,TGI,SK-MEL-28 melanoma,58.4 µM
same,GI50,RXF 393 renal,7.03 µM
same,TGI,RXF 393 renal,> 100 µM
same,GI50,SF-268 CNS,5.97 µM
same,TGI,SF-268 CNS,> 100 µM
same,GI50,MOLT-4 leukemia,> 100 µM
same,TGI,MOLT-4 leukemia,> 100 µM
same,GI50,SW-620 colon,8.69 µM
same,TGI,SW-620 colon,> 100 µM
same,GI50,HCT-116 colon,6.85 µM
same,TGI,HCT-116 colon,> 100 µM
same,GI50,MALME-3M melanoma,11.9 µM
same,TGI,MALME-3M melanoma,36.1 µM
same,GI50,IGROV1 ovarian,2.6 µM
same,TGI,IGROV1 ovarian,> 100 µM
same,GI50,M14 melanoma,14.3 µM
same,TGI,M14 melanoma,> 100 µM
same,GI50,HOP-62 NSCLC,10.5 µM
same,TGI,HOP-62 NSCLC,> 100 µM
same,GI50,SF-539 CNS,14.7 µM
same,TGI,SF-539 CNS,> 100 µM
same,GI50,HCT-15 colon,> 100 µM
same,TGI,HCT-15 colon,> 100 µM
same,GI50,SNB-19 CNS,27 µM
same,TGI,SNB-19 CNS,> 100 µM
same,GI50,K-562 leukemia,9.3 µM
same,TGI,K-562 leukemia,> 100 µM
same,GI50,OVCAR-5 ovarian,18.2 µM
same,TGI,OVCAR-5 ovarian,> 100 µM
same,GI50,NCI-H460 lung,10.3 µM
same,TGI,NCI-H460 lung,> 100 µM
same,GI50,UACC-62 melanoma,13.9 µM
same,TGI,UACC-62 melanoma,75 µM
same,GI50,TK-10 renal,2.77 µM
same,TGI,TK-10 renal,97.2 µM
same,GI50,UACC-257 melanoma,86 µM
same,TGI,UACC-257 melanoma,> 100 µM
same,GI50,DU-145 prostate,2.27 µM
same,TGI,DU-145 prostate,> 100 µM
same,GI50,HL-60(TB) leukemia,15.2 µM
same,TGI,HL-60(TB) leukemia,> 100 µM
same,GI50,SNB-75 CNS,11.1 µM
same,TGI,SNB-75 CNS,95.8 µM
same,GI50,U251 CNS,8.96 µM
same,TGI,U251 CNS,> 100 µM
same,GI50,LOX IMVI melanoma,5.62 µM
same,TGI,LOX IMVI melanoma,> 100 µM
same,GI50,HT29 colon,> 100 µM
same,TGI,HT29 colon,> 100 µM
same,GI50,NCI-H23 lung,> 100 µM
same,TGI,NCI-H23 lung,> 100 µM
same,GI50,SK-OV-3 ovarian,4.2 µM
same,TGI,SK-OV-3 ovarian,> 100 µM
same,GI50,SF-295 CNS,20.1 µM
same,TGI,SF-295 CNS,> 100 µM
same,GI50,SR leukemia,5.65 µM
same,TGI,SR leukemia,> 100 µM
same,GI50,HS 578T breast,4.79 µM
same,TGI,HS 578T breast,> 100 µM
